The subject of assay [1] is fibrotic fibroblasts (UIP patients). Nature of the assay: Profibrotic gene expression (real time PCR) after 24 hrs stimulation of fibrotic fibroblasts. The class given is cell-based, human. Conditions: for IL13Ra2 gene expression (FIG. 7B): fibroblasts, cell type not given; for CTGF gene expression (FIG. 5): fibrotic (UIP) fibroblasts; for aSMA expression (FIG. 2) / increase in aSMA expression / TGFb1 gene expression (FIG. 4): fibrotic fibroblasts; for increase in aSMA expression: vs unstimulated. The text has this: (§1) Cell lines were provided by Dr Cory Hogaboam at the University of Michigan. All of the primary fibroblast lines were isolated as previously described (Hogaboam et al. 1999 J Immunol 163(4):2193-201). Pulmonary fibroblasts were isolated from lung biopsies taken from UIP patients (n=4) and these are referred to as “fibrotic fibroblasts”. Fibroblasts were also isolated from lung tissue taken during lung tumor resection (n=5) and these samples were confirmed to be non-fibrotic by histological analysis. These non-fibrotic tissue derived fibroblasts are referred to as “non-fibrotic fibroblasts”.
(§2) Human lung fibroblasts were plated into 24 well plates (Costar, Corning, N.Y.) at 100,000 cells/well and allowed to adhere for 8 hours. The cells were then washed with PBS and cultured overnight in serum free media (DMEM with 1-Glutamine, Pen/Strep). Cells were then stimulated for 24 hrs in the presence or absence of TGFb-1 (1 or 10 ng/mL), PDGF-AB (20 or 200 ng/mL) or CCL2 (1 or 10 ng/mL). TGFb1, PDGF-AB and CCL2 were purchased from R&D Systems. Supernatants were removed and RNA was subsequently isolated using RNeasy Plus Mini-Kits (QIAGEN, Valencia, Calif.) as per manufacturer's instructions and RNA was reverse transcribed into cDNA using TaqManâ Reverse Transcription Reagents (Applied Biosystems, Foster City, Calif.). Profibrotic gene expression was determined by real time PCR using the Taqmanâ Universal PCR Master Mix (Applied Biosystems) and pre-developed Taqmanâ Gene Expression Assays (Applied Biosystems) as per manufacture's instructions.
(§3) Quantitative gene expression was calculated using the comparative CT method, where CT values are determined as the threshold cycle number for which gene expression is first detected. Fold changes in gene expression for the genes of interest were first normalized to the housekeeping gene 18S, giving ACT values. Fold changes in expression between fibrotic and non-fibrotic fibroblasts were calculated as: ΔCT(non-fibrotic)−ΔCT(fibrotic)=ΔΔCT, where the non-fibrotic gene expression served as the calibrator. Fold changes in gene expression due to in vitro stimulation were calculated by ΔΔCT=ΔCT(unstimulated)−ΔCT(stimulated), where the unstimulated sample served as calibrator. The calculation 2-ΔΔCT then gives a relative value for final fold change when compared to calibrator.

Assay [2] relates to non-fibrotic fibroblasts. Nature of the assay: Profibrotic gene expression (real time PCR) after 24 hrs stimulation of non-fibrotic fibroblasts. The class given is cell-based, human.
Excerpt: as §1, §2, §3

On to “PDGF: platelet-derived growth factor alpha/beta; purchased from R&D Systems, used as fibroblast stimulus”, for which the “IL13Ra1 gene expression (FIG. 7A)” value in assay [1] (UIP fibroblasts) is “upregulated”. Besides, in assay [1], the “IL13Ra2 gene expression (FIG. 7B)” value is given as “upregulated”, the “CTGF gene expression (FIG. 5)” value is “induced an increase”, the “aSMA expression (FIG. 2)” value is listed as “modest increase” and the “increase in aSMA expression” value is listed as “less than 10 fold”. Moreover, in assay [2], the “aSMA expression (FIG. 2)” value is “only in the fibrotic fibroblasts”.

Consider “TGFb1: transforming growth factor beta-1; purchased from R&D Systems, used as fibroblast stimulus”, for which, in assay [1] (UIP fibroblasts), the “IL13Ra1 gene expression (FIG. 7A)” value is recorded as “upregulated” and the “TGFbRI gene expression (FIG. 6A)” value is “greater effect on TGFbRI”. In assay [1], the “IL13Ra2 gene expression (FIG. 7B)” value is “upregulated”, the “CTGF gene expression (FIG. 5)” value is given as “induced an increase”, the “TGFb1 gene expression (FIG. 4)” value is “increased TGFβ1” and the “aSMA expression (FIG. 2)” value is given as “induced aSMA”. For the same substance, in assay [2], the “CTGF gene expression (FIG. 5)” value is given as “induced an increase”, the “TGFb1 gene expression (FIG. 4)” value is “increased TGFβ1” and the “aSMA expression (FIG. 2)” value is “induced aSMA”.

Take “CCL2: CC-chemokine ligand 2, Monocyte Chemoattractant Protein 1; purchased from R&D Systems, used as fibroblast stimulus”: in assay [1] (UIP fibroblasts), the “IL13Ra1 gene expression (FIG. 7A)” value is given as “upregulated”, the “TGFbRII gene expression (FIG. 6B)” value is on record as “somewhat greater increase in TGFbRII”, the “procollagen I gene expression (FIG. 3A)” value is “induces” and the “procollagen III gene expression (FIG. 3B)” value is listed as “induces”. For the same substance, in assay [1], the “IL13Ra2 gene expression (FIG. 7B)” value is on record as “upregulated”, the “CTGF gene expression (FIG. 5)” value was “induced an increase”, the “TGFb1 gene expression (FIG. 4)” value is “enhances TGFb1 gene expression” and the “aSMA expression (FIG. 2)” value is “induced an increase”. The “increase in aSMA expression” value in assay [1] is recorded as “more than 10 fold”. Besides, the “aSMA expression (FIG. 2)” value in assay [2] is listed as “only induced an increase in aSMA expression in fibrotic fibroblasts”.

(Values after patent publication US20100074886A1, “CCR2 ANTAGONISTS FOR TREATMENT OF FIBROSIS” (priority 2006, published 2010).)
